Source: US8551727B2, “Gold nanoparticle based protease imaging probes and use thereof” (Korea Institute of Science and Technology, priority 2007, dated 2013)

Columns and labels:
[1] = Particle analysis of MMP selective gold nanosensor (TEM and light scattering); format: physicochemical
Description: For the gold nanoparticle derivatives prepared in Example 1-3, the size of nanoparticle was measured using transmission electron microcopy (TEM) and light scattering (Brookhaven Instrument).

MMP-2 = biological target: T1, MMP-2 (Homo sapiens, UniProt P08253); assay: Fluorescence exhibition due to enzyme degradation of gold nanosensor by activated MMP-2 (96-well, Kodak Image Station); format: biochemical; details: 37° C., 2 hours
T1 sequence (P08253 110-660): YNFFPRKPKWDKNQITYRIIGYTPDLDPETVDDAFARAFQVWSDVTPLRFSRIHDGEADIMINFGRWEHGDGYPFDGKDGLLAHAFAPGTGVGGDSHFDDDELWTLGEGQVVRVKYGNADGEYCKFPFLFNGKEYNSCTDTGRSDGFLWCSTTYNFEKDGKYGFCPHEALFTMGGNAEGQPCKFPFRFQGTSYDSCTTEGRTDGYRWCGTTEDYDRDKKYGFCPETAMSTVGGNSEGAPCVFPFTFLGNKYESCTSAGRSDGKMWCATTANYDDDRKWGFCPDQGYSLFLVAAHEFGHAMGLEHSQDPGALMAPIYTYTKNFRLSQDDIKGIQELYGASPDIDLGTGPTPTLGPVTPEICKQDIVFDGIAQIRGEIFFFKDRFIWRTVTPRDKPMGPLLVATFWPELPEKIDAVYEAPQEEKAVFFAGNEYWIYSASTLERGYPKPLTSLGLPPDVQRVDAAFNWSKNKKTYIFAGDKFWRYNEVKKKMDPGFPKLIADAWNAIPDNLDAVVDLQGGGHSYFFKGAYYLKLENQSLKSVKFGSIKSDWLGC
Description: (§1) A gold nanosensor was reacted respectively with MMP-2 and MMP-13 each activated in the 96-well, a scramble peptide (i.e., a peptide having the same amino acid contained structure but having different sequence so as not to act as a substrate with respect to a specific enzyme) and MMP-2/MMP-2 inhibitor at temperature of 37° C. for 2 hours, and thereafter a fluorescence exhibition due to the enzyme degradation was observed.
(§2) First, in order to activate the MMP-2 and MMP-13, the MMPs were added into a TCNB mixture (containing 0.1M of tris, 5 mM of calcium chloride, 200 mM of NaCl and 0.1% of Brij) having 2.5 mmol/L of p-aminophenyl mercuric acid added thereto, so as to be reacted at temperature of 37° C. for 1 hour. The activated MMP-2 and MMP-13 were reacted with the gold nanosensor in 200 μL of mixture in each well at temperature of 37° C. for 2 hours, and thereafter the degree of the fluorescence was observed using Kodak Image Station 4000MM Digital Imaging System built in a […] (Charge Coupled Device) camera.
The MMP gold nanosensor was used to quantitatively analyze the concentration of MMP-2 protease. In more detail, according to the same experimental way to that in Example 2-2, each of activated MMP-2s having concentrations of 0, 1.4, 3.5, 7 and 14 nmol/L, respectively, was added to the MMP-2 gold nanosensor to be reacted at temperature of 37° C. for 2 hours, and then the degree of the fluorescence was observed using the Kodak Image Station 4000MM Digital Imaging System.

MMP-13 = MMP-13 (Homo sapiens, UniProt P45452); assay: Fluorescence exhibition due to enzyme degradation of gold nanosensor by activated MMP-13 (96-well, Kodak Image Station); format: biochemical; details: state (c), 37° C., 2 hours
Description: as §1, §2

[2] = test system: Invasive squamous cell carcinoma (SCC7); assay: Real-time imaging of cancerous tissue in cancer animal models; format: in vivo, C3H/HeN mouse; details: 100 ul
Description: Invasive squamous cell carcinoma (SCC7) was injected into C3H/HeN mouse to create a cancer animal model. For the cancerous tissue with a size of more than 5 mm, the MMP-2 gold nanosensor was injected into the cancerous tissue, to thereafter estimate the possibility of imaging the cancer cell.
The invasive squamous cell carcinoma (SCC7) is known as a cancer cell expressing a great amount of MMP-2. The experiment was performed with respect to three animal test groups including a normal mouse having MMP-2 gold nanosensor (100 ul, 10 nM/mL) injected thereinto and a cancer mouse also having MMP-2 gold nanosensor (100 ul, 10 nM/mL) injected thereinto, and a cancer mouse having both MMP-2 gold sensor and MMP-2 inhibitor injected thereinto.

[3] = test system: cancerous tissue overexpressing MMP-2 (SCC7); assay: Fluorescence of gold nanosensor in removed cancerous tissue; format: in vivo, C3H/HeN mouse
Description: Depending on whether the MMP-2 inhibitor was injected into the cancerous tissue overexpressing MMP-2, the fluorescence of the MMP-2 gold nanosensor was observed.

Cy5.5-GPLGLFARC-Gold [MMP selective gold nanosensor]
size of nanoparticle (average) [1]: approximately 20 nm | fluorescence, MMP-2 added (MMP-2; MMP-2 added): bright fluorescence was exhibited | fluorescence versus MMP-2 concentration (MMP-2; activated MMP-2 at 0, 1.4, 3.5, 7 and 14 nmol/L): increased in proportion to the concentration of the added MMP-2 enzyme | fluorescence, MMP-2 not added (MMP-2; state (a), no MMP-2): fluorescence quenched | fluorescence in the reaction with MMP-2 inhibitor (MMP-2; state (e), MMP-2/MMP-2 inhibitor): no fluorescence is emitted | fluorescence with respect to MMP-13 (MMP-13): rarely exhibits fluorescence | fluorescence in mouse with cancer cell ([2]; Au NP (SCC7 tumor), 10 nM/mL injected into cancerous tissue): emitted high fluorescence as time elapses | fluorescence in normal mouse ([2]; normal mouse without the cancer cell, 10 nM/mL injected): did not exhibit fluorescence | fluorescence in removed cancerous tissue treated with MMP-2 inhibitor ([3]; cancerous tissue (+inh)): remarkably low fluorescence | fluorescence in removed cancerous tissue not treated with MMP-2 inhibitor ([3]; cancerous tissue (−inh)): remarkably high fluorescence
